# PMC9835529, “Investigation of Novel Quinoline–Thiazole Derivatives as Antimicrobial Agents: In Vitro and In Silico Approaches” (ACS Omega, 2022)
# Experiments:
# [1] = molecular target: T1, human aromatase enzyme (CYP19A) (Homo sapiens, UniProt P11511); test: Aromatase (CYP19A) Inhibitor Screening Kit (Fluorometric); type: biochemical
# T1 construct: purchased Bio Vision
# T1 sequence (P11511 1-503): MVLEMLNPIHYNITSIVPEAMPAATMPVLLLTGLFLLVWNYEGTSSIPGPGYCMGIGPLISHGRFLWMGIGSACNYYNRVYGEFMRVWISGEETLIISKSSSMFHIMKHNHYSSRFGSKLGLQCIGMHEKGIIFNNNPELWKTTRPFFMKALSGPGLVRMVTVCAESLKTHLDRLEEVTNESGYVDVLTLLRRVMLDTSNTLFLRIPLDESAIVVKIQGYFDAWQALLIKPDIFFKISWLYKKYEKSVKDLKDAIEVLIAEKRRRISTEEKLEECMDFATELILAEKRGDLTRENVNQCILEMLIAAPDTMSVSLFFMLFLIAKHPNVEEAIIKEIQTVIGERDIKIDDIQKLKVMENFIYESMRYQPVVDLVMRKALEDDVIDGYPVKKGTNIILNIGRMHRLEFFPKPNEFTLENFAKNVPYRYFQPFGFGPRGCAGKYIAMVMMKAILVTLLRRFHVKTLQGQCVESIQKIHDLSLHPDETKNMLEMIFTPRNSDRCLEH
# [2] = test system: C. glabrata ATCC 90030; test: Anticandidal broth microdilution (EUCAST EDef 7.1), MIC90; type: cell-based, Candida glabrata; settings: Nakaseomyces glabratus, ATCC90030, C. glabrata ATCC 90030
# From the text: (§1) E. coli (ATCC 35218), E. coli (ATCC 25922), S. aureus (ATCC 6538), methicillin-resistant S. aureus (MRSA) (clinical isolate), S. typhimurium (ATCC 13311), and K. pneumoniae (NCTC 9633) cells for antibacterial effect, and C. albicans (ATCC 24433), C. glabrata (ATCC 90030), C. krusei (ATCC 6258), and C. parapsilosis (ATCC 22019) for the antifungal effect of the final compounds were used to determine the MIC90 values. The broth microdilution procedure specified in the M07-A9 document of the Clinical and Laboratory Standards Institute (CLSI) was used for antibacterial study,[55] and the EDef 7.1 document published by EUCAST was used for the antifungal study.[56] For both activity studies, the detailed procedures were explained in previous studies.[57],[58]
# [3] = test system: Lanosterol 14α-demethylase (LMD, CYP51A1); test: LDM (CYP51A1) inhibition by LC-MS-MS quantification of ergosterol level; type: cell-based
# Method: The activity of the target compounds was tested against Candida strains via the determination of ergosterol production.
# Ergosterol level was determined using the extract of total sterols from C. albicans (and its other species) following the method described by Breivik and Owades.[63] Quantification of the ergosterol level in this extract was carried out by the recently described method.[58],[64]−[66] According to these described studies, in the current work, compounds 4b, 4e, 4f, and 4h–m were undertaken to investigate their action mechanism. Thus, the LC-MS-MS-based method that quantifies the ergosterol level was applied. […]. Ergosterol quantity in negative control samples was regarded as 100%. All concentrations were analyzed in quadruplicate, and the results were expressed as mean ± standard deviation (SD).
# [4] = test system: Klebsiella pneumoniae NCTC 9633; test: Antibacterial broth microdilution (CLSI M07-A9), MIC90; type: cell-based; settings: NCTC9633, K. pneumoniae NCTC 9633
# From the text: (§2) The broth microdilution procedure specified in the M07-A9 document of the Clinical and Laboratory Standards Institute (CLSI) was used for antibacterial study,[55] and the EDef 7.1 document published by EUCAST was used for the antifungal study.[56] For both activity studies, the detailed procedures were explained in previous studies.[57],[58]
# [5] = test system: Staphylococcus aureus ATCC 6538; test: as above; type: cell-based; settings: Staphylococcus aureus, ATCC6538; S. aureus ATCC 6538; read-out: MIC90
# From the text: as §2
# [6] = test system: Salmonella typhimurium ATCC 13311; test: as above; type: cell-based; settings: Salmonella enterica; S. typhimurium ATCC 13311
# From the text: as §2
# [7] = test system: methicillin-resistant S. aureus (MRSA) (clinical isolate); test: as above; type: cell-based; settings: for MIC90: Staphylococcus aureus
# From the text: as §2
# [8] = test system: Escherichia coli ATCC 35218; test: as above; type: cell-based; settings: E. coli ATCC 35218; for MIC90: Escherichia coli, ATCC35218
# From the text: as §2
# [9] = test system: E. coli ATCC 25922; test: as above; type: cell-based; settings: for MIC90: Escherichia coli, ATCC25922
# From the text: as §2
# [10] = test system: NIH/3T3 cells; test: Cytotoxicity on NIH/3T3 healthy cell line; type: cell-based; settings: Mus musculus, NIH3T3, 24 h incubation
# Method: NIH/3T3 cells were incubated in Dulbecco’s modified Eagle’s medium (DMEM) (Sigma-Aldrich, St. Louis, MO), added with fetal calf serum, penicillin (100 IU/mL), streptomycin ([…]), and 7.5% NaHCO3 at 37 °C in a humidified atmosphere of 95% air and 5% CO2. NIH/3T3 cells were seeded into the 96-well plates at a density of 1 × 10^4 cells. After 24 h of incubating period, the culture media were removed, and test compounds were added. After 24 h of incubation period, colorimetric measurements were performed by a microplate reader (Biotek) at 540 nm. Inhibition % at all concentrations was determined using the formula below, and the IC50 values were calculated from a dose–response curve obtained by plotting the percentage inhibition versus the log concentration with the use of Microsoft Excel 2013.
# [11] = test system: Candida albicans ATCC 24433; test: Anticandidal broth microdilution (EUCAST EDef 7.1), MIC90; type: cell-based; settings: Candida albicans, ATCC24433, C. albicans ATCC 24433; read-out: MIC90
# From the text: as §1
# [12] = test system: Candida parapsilosis ATCC 22019; test: as above; type: cell-based; settings: Lodderomyces parapsilosis, ATCC22019, C. parapsilosis ATCC 22019; read-out: MIC90
# From the text: as §1
# [13] = test system: Candida krusei ATCC 6258; test: as above; type: cell-based; settings: Pichia kudriavzevii, ATCC6258, C. krusei ATCC 6258; read-out: MIC90
# From the text: as §1
# [14] = molecular target: T2, E. coli DNA gyrase (Escherichia coli, UniProt P0AES4+P0AES6); test: DNA-gyrase supercoiling inhibition by electrophoresis (TopoGen kit); type: biochemical; settings: relaxed pHOT1 DNA
# T2 construct: purchased TopoGen SKU TG2000G-3
# T2 sequence (P0AES4 whole entry, one chain of several): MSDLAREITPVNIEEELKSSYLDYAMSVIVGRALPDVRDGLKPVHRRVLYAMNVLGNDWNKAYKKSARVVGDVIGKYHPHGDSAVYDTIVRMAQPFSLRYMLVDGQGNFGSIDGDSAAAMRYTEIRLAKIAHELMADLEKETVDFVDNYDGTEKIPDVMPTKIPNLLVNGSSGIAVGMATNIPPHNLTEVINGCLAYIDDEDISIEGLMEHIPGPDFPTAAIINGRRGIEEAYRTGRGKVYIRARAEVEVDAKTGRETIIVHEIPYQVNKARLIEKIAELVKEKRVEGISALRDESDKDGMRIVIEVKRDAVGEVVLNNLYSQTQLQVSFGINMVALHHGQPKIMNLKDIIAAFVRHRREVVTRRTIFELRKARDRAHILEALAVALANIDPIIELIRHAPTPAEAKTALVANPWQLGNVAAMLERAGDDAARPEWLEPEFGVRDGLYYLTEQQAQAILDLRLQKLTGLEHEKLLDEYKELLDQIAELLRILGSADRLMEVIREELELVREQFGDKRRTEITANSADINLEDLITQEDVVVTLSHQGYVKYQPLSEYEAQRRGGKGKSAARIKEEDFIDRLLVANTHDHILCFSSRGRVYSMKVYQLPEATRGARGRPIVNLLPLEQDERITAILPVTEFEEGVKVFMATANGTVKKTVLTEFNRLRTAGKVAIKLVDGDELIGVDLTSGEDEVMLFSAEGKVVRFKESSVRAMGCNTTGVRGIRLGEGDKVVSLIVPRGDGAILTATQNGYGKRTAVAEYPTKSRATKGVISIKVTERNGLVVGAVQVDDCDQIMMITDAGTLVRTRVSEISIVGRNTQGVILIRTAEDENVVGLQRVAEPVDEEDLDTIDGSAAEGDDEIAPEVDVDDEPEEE
# Method: DNA gyrase obtained from E. coli was used to detect the inhibition of the superhelix activity of DNA gyrase. The method was performed according to the kit protocol described by the supplier (SKU TG2000G-3, TopoGen). The detailed procedures were explained in the previous study.[62]
compound,measurement,setting,value
COc1ccc2nc(Cl)c(C=NNc3nc(-c4cccc(F)c4)cs3)cc2c1 [4j],IC50,[1],0.047 ± 0.001 µM
same,melting point,,221 to 223 °C
same,MIC90,[2],> 1000 µg/mL
same,effect on ergosterol production / LMD enzyme inhibition (in words),[3]; C. parapsilosis,showed their anticandidal activity via LMD enzyme inhibition
same,CYP51A1 Inhibition%,"[3]; C. parapsilosis, 0.06 μg/mL",41.867 ± 0.968%
same,CYP51A1 Inhibition%,"[3]; C. parapsilosis, 0.24 μg/mL",55.281 ± 1.174%
same,CYP51A1 Inhibition%,"[3]; C. parapsilosis, 0.98 μg/mL",63.508 ± 1.948%
same,MIC90,[4],> 1000 µg/mL
same,MIC90,[5],> 1000 µg/mL
same,MIC90,[6],> 1000 µg/mL
same,MIC90,[7],> 1000 µg/mL
same,MIC90,[8],> 1000 µg/mL
same,MIC90,[9],> 1000 µg/mL
same,IC50,[10],10 ± 0.39 µM
same,MIC90,[11],> 1000 µg/mL
same,MIC90,[12],< 0.06 µg/mL
same,MIC90,[13],62.5 µg/mL
COc1ccc(-c2csc(N/N=C/c3cc4cc(OC)ccc4nc3Cl)n2)cc1 [4g],melting point,,176 to 180 °C
same,MIC90,[2],15.6 µg/mL
same,MIC90,[4],> 1000 µg/mL
same,MIC90,[5],7.81 µg/mL
same,MIC90,[6],> 1000 µg/mL
same,times more effective than the standard drug chloramphenicol (MIC90),[7],8
same,MIC90,[7],3.91 µg/mL
same,times more effective than chloramphenicol (MIC90),[8],four times
same,MIC90,[8],7.81 µg/mL
same,times more effective than chloramphenicol (MIC90),[9],four times
same,MIC90,[9],3.91 µg/mL
same,IC50,[10],10.4 ± 0.22 µM
same,MIC90,[11],> 1000 µg/mL
same,MIC90,[12],3.91 µg/mL
same,MIC90,[13],31.2 µg/mL
same,DNA-gyrase inhibition (electrophoresis image),[14],no peak belonging to the supercoiled DNA
COc1ccc2nc(Cl)c(C=NNc3nc(-c4cccc5ccccc45)cs3)cc2c1 [4m],melting point,,174 to 179 °C
same,MIC90,[2],1.95 µg/mL
same,effect on ergosterol production / LMD enzyme inhibition (in words),[3]; C. krusei,showed their anticandidal activity via LMD enzyme inhibition
same,CYP51A1 Inhibition%,"[3]; C. krusei, 0.06 μg/mL",48.431 ± 2.036%
same,CYP51A1 Inhibition%,"[3]; C. krusei, 0.24 μg/mL",61.289 ± 1.461%
same,CYP51A1 Inhibition%,"[3]; C. krusei, 0.98 μg/mL",70.574 ± 2.648%
same,MIC90,[4],> 1000 µg/mL
same,MIC90,[5],7.81 µg/mL
same,MIC90,[6],> 1000 µg/mL
same,times more effective than the standard drug chloramphenicol (MIC90),[7],4
same,MIC90,[7],7.81 µg/mL
same,times more effective than chloramphenicol (MIC90),[8],four times
same,MIC90,[8],7.81 µg/mL
same,times more effective than chloramphenicol (MIC90),[9],twice
same,MIC90,[9],7.81 µg/mL
same,IC50,[10],34.5 ± 0.88 µM
same,MIC90,[11],1.95 µg/mL
same,MIC90,[12],0.24 µg/mL
same,MIC90,[13],≤ 0.06 µg/mL
same,DNA-gyrase inhibition (electrophoresis image),[14],no peak belonging to the supercoiled DNA
COc1ccc2nc(Cl)c(C=NNc3nc(-c4ccncc4)cs3)cc2c1 [4l],IC50,[1],0.042 ± 0.002 µM
same,melting point,,250 to 257 °C
same,MIC90,[2],1.95 µg/mL
same,effect on ergosterol production / LMD enzyme inhibition (in words),[3]; C. parapsilosis,showed their anticandidal activity via LMD enzyme inhibition
same,CYP51A1 Inhibition%,"[3]; C. parapsilosis, 0.06 μg/mL",40.328 ± 1.326%
same,CYP51A1 Inhibition%,"[3]; C. parapsilosis, 0.24 μg/mL",56.137 ± 0.928%
same,CYP51A1 Inhibition%,"[3]; C. parapsilosis, 0.98 μg/mL",62.949 ± 2.626%
same,MIC90,[4],> 1000 µg/mL
same,MIC90,[5],> 1000 µg/mL
same,MIC90,[6],> 1000 µg/mL
same,MIC90,[7],> 1000 µg/mL
same,MIC90,[8],> 1000 µg/mL
same,MIC90,[9],> 1000 µg/mL
same,IC50,[10],> 1000 µM
same,MIC90,[11],1.95 µg/mL
same,MIC90,[12],1.95 µg/mL
same,MIC90,[13],> 1000 µg/mL
